The assay deals with BaF3 BRAF-KIAA1549 fusion cells. Kind of assay: BaF3 BRAF-KIAA1549 fusion cell proliferation assay. In kind it is cell-based. The note with it: Mus musculus, BaF3, 96 h, read-out: IC50, inhibition of cell growth, BaF3-BRAF:KIAA1549 Fusion. Here is the method: Retroviral Production: The BRAF-KIAA1549 fusion mutant was subcloned into pMXs-IRES-Blasticidin (RTV-016, Cell Biolabs, San Diego, CA). […]. Briefly, HEK 293T cells were plated in Poly-D-lysine coated 6-well plate (2.5×10^5 cells per well) and incubated overnight. The next day, retroviral plasmids (1 μg of BRAF-KIAA fusion mutant, 0.32 μg of pCMV-Gag-Pol and 0.165 μg pCMV-VSV-G) were mixed in 300 μL of Optimem (31985, Life Technologies). The mixture was incubated at room temperature for 5 minutes and then added to Optimem containing transfection reagent Lipofectamine (11668, Invitrogen) and incubated for 20 minutes. The mixture was then added dropwise to HEK 293T cells. The next day the medium was replaced with fresh culture medium and retrovirus was harvested at 24 hours.
Generation of BRAF-KIAA1549 fusion stable cell line: BaF3 cells were plated in V-bottom 96 well plate (COSTAR #3894) in 80 μL of RPMI/10% FBS and 0.01 ng/mL mouse IL-3, supplemented with 8 μg/mL polybrene (4×10^4 cells/well). Cells were transduced with 20 μL of BRAF-KIAA1549 fusion viral supernatant by centrifuging for 30 minutes at 1000 rpm. Cells were placed in a 37 °C incubator overnight. Next day 100 μL of RPMI/10% FBS and 0.01 ng/mL mouse IL-3 was added. After 24 hours, 100 μL of cells were transferred to a 24 well plate containing 900 μL of RPMI/10% FBS and 15 μg/mL Blasticidin. Contents of the 24 well plate were sampled for cell viability via CellTiterGlo (Promega) over a 2-week period.
Assay for cell proliferation: BaF3 BRAF-KIAA1549 fusion cells were resuspended at 1.5×10^5 c/mL in RPMI containing 10% Heat Inactivated FBS, 1% L-glutamine and dispensed in duplicate ([…]) into 384 well plates. To determine the effect of compound on cell proliferation, BaF3 BRAF-KIAA1549 fusion cells were incubated for 96 hours in the presence of vehicle control (DMSO) or compound at varying concentrations. Inhibition of cell growth was determined by luminescent quantification (Envision by Perkin Elmer) of intracellular ATP content using CellTiterGlo (Promega), according to the protocol provided by the manufacturer. To determine the IC50 values, the vehicle-treated cells were normalized as viable cells and analyzed using the CDD Vault, Collaborative Drug Discovery, Burlingame, CA (the Levenberg-Marquardt algorithm; Levenberg, K, […]; Marquardt, D., 1963).
Table A assigns each compound a code for potency in the BaF3 BRAF-KIAA1549 fusion cell proliferation assay: A, B, C, or D. According to the code, A represents an IC50 value<20 nM; B represents an IC50 value≥20 nM and <100 nM; C represents an IC50 value≥100 nM and <500 nM; and D represents an IC50 value≥500 nM.
A word on the IC50: it is the midpoint of a concentration-inhibition curve. Consider `CNc1cc2ncc(-c3cc(NC(=O)c4cc(C(C)(C)F)ccn4)cnc3C)cc2cn1` [compound 65], for which the half-maximal inhibitory concentration (IC50) fell in the range of 20 to 100 nM.

`CNc1cc2ncc(-c3cc(NC(=O)c4ccnc(C5(F)CC5)c4)ccc3C)cc2cn1` [compound 18]: the IC50 was less than 20 nM.

On to `CNc1cc2ncc(-c3cc(NC(=O)c4cc(C(F)(F)F)c(OCCO)cn4)ccc3C)cc2cn1` [compound 71], for which the concentration for half-maximal inhibition (IC50) is 20 to 100 nM.

In the case of `CNc1cc2ncc(-c3cc(NC(=O)c4cccc(C(C)(F)F)c4)cnc3C)cc2cn1` [compound 200], the IC50 was less than 20 nM.

For the compound `CNc1cc2ncc(-c3cc(NC(=O)c4cccc(N(C)C)c4)cnc3C)cc2cn1` [compound 19], the IC50 is less than 20 nM.

As to `CNc1cc2ncc(-c3cc(NC(=O)c4ccnc(C(C)(C)C#N)c4)ccc3C)cc2cn1` [compound 56], the IC50 lay in the range of 20 to 100 nM.

Regarding `CNc1cc2ncc(-c3cc(NC(=O)c4cc(C(F)F)ccn4)cnc3C)cc2cn1` [compound 22], the IC50 fell in the range of 20 to 100 nM.

With `CNc1cc2ncc(-c3cc(NC(=O)c4cc(C(C)(C)C#N)ccn4)c(F)cc3C)cc2cn1` [compound 42], the half-inhibitory concentration (IC50) lay within 20 to 100 nM.

On to `CNc1cc2ncc(-c3cc(NC(=O)c4cc(C(C)(C)C#N)ccn4)cnn3)cc2cn1` [compound 49], for which the IC50 was less than 20 nM.

With `CNc1ncc2cc(-c3cc(NC(=O)c4ccnc(C5(F)CC5)c4)ccc3C)cnc2c1C#N` [compound 271], the IC50 lay within 20 to 100 nM.

Take `CNc1cc2ncc(-c3cc(NC(=O)CN4CCC[C@H](C(F)(F)F)C4)ccc3C)cc2cn1` [compound 63]: the IC50 lay in the range of 20 to 100 nM.

`CNc1cc2ncc(-c3cc(NC(=O)c4cc(C(O)C(C)C)ccn4)cnc3C)cc2cn1` (stereo not drawn) [compound 202]: the IC50 lay in the range of 20 to 100 nM.

On to `CNc1ncc2cc(-c3cc(NC(=O)c4ccnc(C5(F)CC5)c4)ccc3C)cnc2c1Cl` [compound 269], for which the half-inhibitory concentration (IC50) was 100 to 500 nM.

Regarding `CNc1cc2ncc(-c3cc(NC(=O)c4cc(C(C)(C)C#N)ccn4)ccc3Cl)cc2cn1` [compound 41], the IC50 lay within 20 to 100 nM.

`Cc1ccc(NC(=O)c2cc(C(C)(C)C#N)ccn2)cc1-c1cnc2cc(N)ncc2c1` [compound 174]: the IC50 lay within 20 to 100 nM.

On to `CNc1cc2nc(C#N)c(-c3cc(NC(=O)c4ccnc(C(F)(F)F)c4)ccc3C)cc2cn1` [compound 79], for which the IC50 was less than 20 nM.

Turning to `CNc1cc2ncc(-c3cc(NC(=O)c4cccc5c4NC(=O)C5(C)C)ccc3C)cc2cn1` [compound 215], the 50% inhibitory concentration (IC50) lay in the range of 20 to 100 nM.

On to `CNc1cc2ncc(-c3cc(NC(=O)c4cnc5n4CCCC5)cnc3C)cc2cn1` [compound 209], for which the IC50 was greater than 500 nM.

Take `CNc1cc2ncc(-c3cc(NC(=O)c4ccnc(C(F)(F)F)c4)ccc3C)cc2cn1` [compound 2]: the IC50 fell in the range of 20 to 100 nM.

Take `CNc1cc2ncc(-c3cc(NC(=O)c4cc(C(F)(F)F)ccn4)cnc3C)cc2cn1` [compound 20]: the IC50 was less than 20 nM.

Take `CNc1cc2ncc(-c3cc(NC(=O)c4cc(C(F)(F)F)ccn4)ccc3C)cc2cn1` [compound 1]: the half-maximal inhibitory concentration (IC50) is less than 20 nM.

Regarding `CNc1cc2ncc(-c3cc(NC(=O)c4n[nH]c5c4CCCC5(C)C)ccc3C)cc2cn1` [compound 262], the IC50 is 20 to 100 nM.

For the compound `CNc1cc2ncc(-c3cc(NC(=O)c4cccc(C(C)(C)C#N)c4)c(F)cc3C)cc2cn1` [compound 223], the IC50 lay in the range of 20 to 100 nM.

Take `CNc1cc2ncc(-c3cc(NC(=O)c4c[nH]c5c4CC(C)CC5)ccc3C)cc2cn1` (stereo not drawn) [compound 266]: the half-inhibitory concentration (IC50) lay in the range of 20 to 100 nM.

Turning to `CNc1cc2ncc(-c3cc(NC(=O)c4nccc(C(C)C)c4Cl)cnc3C)cc2cn1` [compound 256], the IC50 was in the range of 20 to 100 nM.

With `CNc1cc2ncc(-c3cc(NC(=O)c4ccnc(C5CC(F)(F)C5)c4)ccc3C)cc2cn1` [compound 17], the IC50 is less than 20 nM.

With `CNc1cc2ncc(-c3cc(NC(=O)c4cc(C(N(C)C)C(F)(F)F)ccn4)ccc3C)cc2cn1` (stereo not drawn) [compound 218], the IC50 fell in the range of 20 to 100 nM.

In the case of `Cc1ccc(NC(=O)c2cc(C(F)F)ccn2)cc1-c1cnc2cc(NCCC#N)ncc2c1` [compound 78], the concentration for half-maximal inhibition (IC50) lay within 20 to 100 nM.

Turning to `CNc1cc2ncc(-c3cc(NC(=O)c4cnc5n4CC(C(F)(F)F)CC5)cnc3C)cc2cn1` (stereo not drawn) [compound 243], the half-maximal inhibitory concentration (IC50) is 20 to 100 nM.

In the case of `CNc1cc2ncc(-c3cc(NC(=O)c4cc(C(C)(F)F)ccn4)cnc3C)cc2cn1` [compound 23], the IC50 was 20 to 100 nM.

Regarding `CNCC(F)(F)c1cccc(C(=O)Nc2cnc(C)c(-c3cnc4cc(NC)ncc4c3)c2)n1` [compound 250], the IC50 is greater than 500 nM.

On to `CNc1cc2ncc(-c3cc(NC(=O)c4cnc5n4CC(C)CC5)ccc3C)cc2cn1` (stereo not drawn) [compound 204], for which the IC50 is less than 20 nM.

In the case of `CNc1cc2ncc(-c3cc(NC(=O)c4cc(C5(C#N)CC5)ccn4)ccc3C)cc2cn1` [compound 16], the IC50 is less than 20 nM.

For the compound `CNc1cc2ncc(-c3cc(NC(=O)c4cnc5n4CCCC5C)ccc3C)cc2cn1` (stereo not drawn) [compound 214], the IC50 was 20 to 100 nM.

Turning to `Cc1ccc(NC(=O)c2ccnc(C3(F)CC3)c2)cc1-c1cnc2cc(N)ncc2c1` [compound 154], the IC50 is less than 20 nM.

For `CNc1cc2ncc(-c3cc(NC(=O)c4cnc5n4C[C@H](C)CC5)ccc3C)cc2cn1` [compound 230], the IC50 fell in the range of 20 to 100 nM.

Take `CNc1cc2ncc(-c3cc(NC(=O)c4n[nH]c5c4CC(C)CC5)ccc3C)cc2cn1` (stereo not drawn) [compound 261]: the IC50 was less than 20 nM.

Turning to `CNc1cc2ncc(-c3cc(NC(=O)c4csc5c4CCCC5)cnc3C)cc2cn1` [compound 234], the half-maximal inhibitory concentration (IC50) lay within 20 to 100 nM.

As to `CNc1cc2ncc(-c3cc(NC(=N)c4cc(C(F)(F)F)ccn4)ccc3C)cc2cn1` [compound 61], the IC50 lay within 100 to 500 nM.

With `CNc1cc2ncc(-c3cc(F)c(F)c(NC(=O)c4cc(C(C)(C)C#N)ccn4)c3)cc2cn1` [compound 46], the IC50 lay within 100 to 500 nM.

For the compound `CNc1cc2ncc(-c3cc(NC(=O)c4noc5c4CC(C(C)(C)C)CC5)cnc3C)cc2cn1` (stereo not drawn) [compound 241], the IC50 lay in the range of 100 to 500 nM.

Consider `CNc1cc2ncc(-c3cc(NC(=O)c4ccc(OC(F)F)cn4)cnc3C)cc2cn1` [compound 72], for which the 50% inhibitory concentration (IC50) was greater than 500 nM.

Regarding `Cc1ncc(NC(=O)c2cc(C(C)(C)C#N)ccn2)cc1-c1cnc2cc(N)ncc2c1` [compound 176], the IC50 fell in the range of 20 to 100 nM.

Take `CNc1cc2ncc(-c3cc(NC(=O)c4ccnc(C5(F)CC5)c4)cnc3C)cc2cn1` [compound 33]: the IC50 is less than 20 nM.

Consider `CNc1cc2ncc(-c3cc(NC(=O)c4ccnc(C(C)(C)C#N)c4)cnc3C)cc2cn1` [compound 55], for which the IC50 is less than 20 nM.

For `CNc1cc2ncc(-c3cc(NC(=O)c4cc(C(C)(C)C#N)ccn4)cc(F)c3Cl)cc2cn1` [compound 44], the IC50 lay in the range of 20 to 100 nM.

Consider `CNc1cc2ncc(-c3cc(NC(=O)c4cc(C(NC)C(F)(F)F)ccn4)ccc3C)cc2cn1` (stereo not drawn) [compound 203], for which the 50% inhibitory concentration (IC50) is less than 20 nM.

`CNc1cc2ncc(-c3cc(NC(=O)C[C@@H]4C[C@H](C(F)(F)F)CCO4)ccc3C)cc2cn1` [compound 7]: the concentration for half-maximal inhibition (IC50) is less than 20 nM.

On to `CNc1cc2ncc(-c3cc(NC(=O)c4cccc5c4CCC[C@H]5O)cnc3C)cc2cn1` [compound 207], for which the IC50 is greater than 500 nM.

Regarding `CNc1cc2ncc(-c3cc(NC(=O)c4cccc(C(O)C(F)(F)F)n4)cnc3C)cc2cn1` (stereo not drawn) [compound 210], the IC50 is greater than 500 nM.

As to `CNc1cc2ncc(-c3cc(NC(=O)c4cc(C(C)(C)C#N)ccn4)ccc3C)cc2cn1` [compound 14], the IC50 was less than 20 nM.

`CNc1ncc2cc(-c3cc(NC(=O)c4ccnc(C(C)(C)C)c4)cnc3C)cnc2n1` [compound 58]: the IC50 was 20 to 100 nM.

Regarding `CNc1cc2ncc(-c3cc(NC(=O)c4cc(C(C)(C)C(N)=O)ccn4)ccc3C)cc2cn1` [compound 255], the IC50 was in the range of 20 to 100 nM.

Consider `CNc1cc2ncc(-c3cc(NC(=O)c4ccnc(C(C)(F)F)c4)ccc3C)cc2cn1` [compound 9], for which the IC50 was less than 20 nM.

As to `CNc1cc2c(C#N)cc(-c3cc(NC(=O)c4ccnc(C5(F)CC5)c4)ccc3C)cc2cn1` [compound 272], the IC50 lay in the range of 20 to 100 nM.

As for `CNc1cc2ncc(-c3cc(NC(=O)c4n[nH]c5c4CCCC5)cnc3C)cc2cn1` [compound 229], the IC50 fell in the range of 20 to 100 nM.

As for `CNc1cc2ncc(-c3cc(NC(=O)c4noc5c4COCC5)cnc3C)cc2cn1` [compound 246], the IC50 is greater than 500 nM.
